# Measured values taken from patent US10633675B2, “Microbial engineering for the production of chemical and pharmaceutical products from the isoprenoid pathway” (priority 2009, dated 2020).
# Legend:
# [1] = test system: taxadiene synthesis by strain 26; test: Effect of externally-introduced indole on taxadiene production; format: cell-based, E. coli
# Description: (§1) FIGS. 15A-15C. Impact of metabolite byproduct Indole accumulation on taxadiene production and growth. […] Strains 26 to 28 and 30 to 32, all with chromosomally integrated upstream pathway expression, were chosen for consistent comparison. The two sets of strains differ only in the expression of the downstream pathway with the second set (30 to 32) having twice the level of expression of the first. In strains 26 to 28 and 30 to 32, upstream expression increased by changing the promoters from Trc, to T5 and T7, respectively. […] The fold improvements are relative to strain 25 and 29, respectively, for the two sets. […] Different concentrations of indole were introduced into cultures of cells cultured in minimal media with 0.5% yeast extract. […] Data are mean+/−SD for three replicates. Strains devoid of the downstream pathway and with different strengths of the upstream pathway (1, 2, 6, 21, 40 and 100) were selected.
# [2] = test system: engineered strains of E. coli; test: Effect of externally-introduced indole on cell growth; format: cell-based
# Description: as §1
smiles,measurement,setting,value
c1ccc2[nH]ccc2c1 [indole],exogenous indole level at which taxadiene synthesis is severely inhibited,[1]; exogenous indole (FIG. 15B),> 100 mg/L
same,effect on taxadiene production,"[1]; indole concentration increased from 50 mg/L to 100 mg/L, minimal media with 0.5% yeast extract (FIG. 15B)",significantly reduced
same,effect on cell growth,"[2]; further increasing the indole concentration, level of inhibition very strain dependent (FIG. 15C)",inhibited cell growth
same,effect on cell growth of strain 26 compared with strains devoid of the downstream pathway,"[2]; strain 26, the high taxadiene producer (FIG. 15C)",strongest inhibition
